Assay results from patent US20210060165A1, “Light-Controlled Antibacterial Agent Composed of Linear Cationic Oligopeptide and Multi-arm B-Cyclodextrin” (JILIN UNIVERSITY, priority 2019, published 2021).

Assays:
Experiment in all cases: growth curve (OD600) in LB liquid culture medium
Assay type in all cases: cell-based
Details in all cases: separate or as aggregates
Staphylococcus aureus = tested on: Staphylococcus aureus
Experimental: (§1) Preparation of LB liquid culture medium: dissolving 1-10 g of peptone, 0.5-5 g of yeast extract and 1-10 g of sodium chloride in 100-980 mL of redistilled water, and performing high temperature sterilization on same at 121° C. for 20 min to obtain a fresh LB liquid culture medium.
(§2) Picking bacterial strains (gram-negative bacteria such as Escherichia coli, […], Pseudomonas aeruginosa, and gram-positive bacteria such as Staphylococcus aureus) into 20-30 mL of (containing 20-25 μL of ampicillin) the above fresh LB liquid culture medium, placing in a constant temperature shaker with a revolution of 180 rpm and a temperature of 37° C. for culture for 11-15 h, thus obtaining the LB culture solution containing bacterial strains; then diluting the above LB culture solution containing bacteria strains with a blank LB liquid culture medium to an OD600 (OD600 refers to the light absorption value of the bacteria strain culture solution at 600 nm) about 0.035.
(§3) Antibacterial property of cross-linked aggregates in LB liquid culture medium: adding the diluted LB culture solution (the LB culture solution contains bacteria and ampicillin) containing bacterial strains into a clean test tube, adding the aqueous solution of the light-controlled antibacterial agent composed of the linear cationic oligopeptide and multi-arm β-cyclodextrin into the test tube, and controlling the concentration of the final linear cationic oligopeptide to 15-60 μM. Placing the prepared sample in the constant temperature shaker at 37° C. for culture, and controlling the revolution of the shaker to be 180 rpm. Determining the corresponding optical density (OD600) of the culture solution at different times (0-540 min) with a nucleic acid protein analyzer to evaluate the antibacterial activity of the cross-linked aggregates.
(§4) Preparation of LB liquid culture medium: dissolving 10 g of peptone, 5 g of yeast extract and 10 g of sodium chloride in 980 mL of redistilled water, and performing high temperature sterilization on same at 121° C. for 20 min to obtain a fresh LB liquid culture medium. Picking Escherichia coli (BL21-gold (DE3),) into 25 mL (containing 25 μL of ampicillin) of the above fresh LB liquid culture medium, placing in a constant temperature shaker with a revolution of 180 rpm and a temperature of 37° C. for culture for 12 h. Then diluting the obtained Escherichia coli culture solution with the fresh LB liquid culture medium to an OD600 of 0.035.
(§5) respectively taking 4 parts of the sterilized Escherichia coli culture solution (2.0 mL each) into 4 sterile test tubes, numbered as 1, 2, 3, and 4. […]

[1] = tested on: Escherichia coli (BL21-gold (DE3))
Experimental: as §1, §2, §3, §4, §5

Bacillus subtilis = tested on: Bacillus subtilis
Experimental: as §1, §2, §3, §4, §5

Pseudomonas aeruginosa = tested on: Pseudomonas aeruginosa
Experimental: as §1, §2, §3, §4, §5

[2] = Embodiment 3, 37° C., azoKLKLKLKazo-NH2 30 μM, three-arm β-cyclodextrin 20 μM
[3] = Embodiment 7, 37° C., azoRARVRazo-NH2 50 μM, three-arm β-cyclodextrin 33.33 μM
[4] = Embodiment 2, 37° C., peptide 30 μM, cyclodextrin 30 μM
[5] = Embodiment 9, 37° C., azoKVKVKVKazo-NH2 30 μM, three-arm β-cyclodextrin 10 μM, two-arm β-cyclodextrin 15 μM
[6] = Embodiment 4, 37° C., azoRARARVRazo-NH2 30 μM, three-arm β-cyclodextrin 20 μM
[7] = Embodiment 6, 37° C., azoKAKAKazo-NH2 60 μM, three-arm β-cyclodextrin 40 μM
[8] = Embodiment 5, 37° C., azoRIRIRARazo-NH2 20 μM, two-arm β-cyclodextrin 20 μM

Question: Which results are given for OCC1OC2OC3C(CO)OC(OC4C(CO)OC(OC5C(Cn6cc(-c7cc(-c8cn(CC9OC%10OC%11C(CO)OC(OC%12C(CO)OC(OC%13C(CO)OC(OC%14C(CO)OC(OC%15C(CO)OC(OC%16C(CO)OC(OC9C(O)C%10O)C(O)C%16O)C(O)C%15O)C(O)C%14O)C(O)C%13O)C(O)C%12O)C(O)C%11O)nn8)cc(-c8cn(CC9OC%10OC%11C(CO)OC(OC%12C(CO)OC(OC%13C(CO)OC(OC%14C(CO)OC(OC%15C(CO)OC(OC%16C(CO)OC(OC9C(O)C%10O)C(O)C%16O)C(O)C%15O)C(O)C%14O)C(O)C%13O)C(O)C%12O)C(O)C%11O)nn8)c7)nn6)OC(OC6C(CO)OC(OC7C(CO)OC(OC8C(CO)OC(OC1C(O)C2O)C(O)C8O)C(O)C7O)C(O)C6O)C(O)C5O)C(O)C4O)C(O)C3O (stereo not drawn) [three-arm β-cyclodextrin]?
Answer: optical density (OD600) at end of culture (Staphylococcus aureus; [2]): 1.25; optical density (OD600) at start of culture (Staphylococcus aureus; [2]): 0.043; optical density (OD600) at end of culture (Staphylococcus aureus; [3]): 1.22; optical density (OD600) at start of culture (Staphylococcus aureus; [3]): 0.041; optical density (OD600) at start of incubation ([1]; Embodiment 1, 37° C., 0 min, azoKVKVKVKazo-NH2 30 μM, three-arm β-cyclodextrin 20 μM): 0.043; optical density (OD600) at end of incubation ([1]; Embodiment 1, 37° C., 9 h (540 min), azoKVKVKVKazo-NH2 30 μM, three-arm β-cyclodextrin 20 μM): 1.61; optical density (OD600) at end of culture (Bacillus subtilis; [4]): 1.15; optical density (OD600) at start of culture (Bacillus subtilis; [4]): 0.036; optical density (OD600) at end of culture (Bacillus subtilis; [5]): 1.23; optical density (OD600) at start of culture (Bacillus subtilis; [5]): 0.039; optical density (OD600) at end of culture (Pseudomonas aeruginosa; [6]): 1.15; optical density (OD600) at start of culture (Pseudomonas aeruginosa; [6]): 0.039; optical density (OD600) at end of culture (Pseudomonas aeruginosa; [7]): 1.25; optical density (OD600) at start of culture (Pseudomonas aeruginosa; [7]): 0.035

Question: Which results are given for OCC1OC2OC3C(CO)OC(OC4C(CO)OC(OC5C(Cn6cc(COc7ccc(OCc8cn(CC9OC%10OC%11C(CO)OC(OC%12C(CO)OC(OC%13C(CO)OC(OC%14C(CO)OC(OC%15C(CO)OC(OC%16C(CO)OC(OC9C(O)C%10O)C(O)C%16O)C(O)C%15O)C(O)C%14O)C(O)C%13O)C(O)C%12O)C(O)C%11O)nn8)cc7)nn6)OC(OC6C(CO)OC(OC7C(CO)OC(OC8C(CO)OC(OC1C(O)C2O)C(O)C8O)C(O)C7O)C(O)C6O)C(O)C5O)C(O)C4O)C(O)C3O (stereo not drawn) [two-arm β-cyclodextrin]?
Answer: optical density (OD600) at end of culture [1, 8]: 1.21; optical density (OD600) at start of culture [1, 8]: 0.034
